PubChem BioAssay AID330 (DTP/NCI, 2004)
Several values for one entry are separate records, joined by “and”; a condition that tells them apart may be missing. Identical values can stand only once. Inconclusive results and toxic doses are left out.

System: P388 leukemia ip, CD2F1 mice, survival T/C
Assay: NCI In Vivo Anticancer Drug Screen. Data for tumor model P388 Leukemia (intraperitoneal) in CD2F1 (CDF1) mice
Settings: endpoint: median survival time, higher = longer survival
Method in brief: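 Mice carrying the transplanted tumor received test compound or vehicle. Survival was recorded in each group, and the value is the treated-group measurement divided by that of the vehicle-treated control group.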

[1] = dose: 6.25 mg/kg/injection, schedule: Q01DX009 (ip), vehicle: Klucel (hydroxypropylcellulose) (HPC)
[2] = dose: 12.5 mg/kg/injection, schedule: Q01DX009 (ip), vehicle: Klucel (hydroxypropylcellulose) (HPC)
[3] = dose: 25.0 mg/kg/injection, schedule: Q01DX009 (ip), vehicle: Klucel (hydroxypropylcellulose) (HPC)
[4] = dose: 50.0 mg/kg/injection, schedule: Q01DX009 (ip), vehicle: Klucel (hydroxypropylcellulose) (HPC)
[5] = dose: 50.0 mg/kg/injection, schedule: Q01DX005 (ip), vehicle: Klucel (hydroxypropylcellulose) (HPC)
[6] = dose: 100.0 mg/kg/injection, schedule: Q01DX005 (ip), vehicle: Klucel (hydroxypropylcellulose) (HPC)
[7] = dose: 50.0 mg/kg/injection, schedule: Q01DX005 (ip), vehicle: saline with Tween-80
[8] = dose: 100.0 mg/kg/injection, schedule: Q01DX005 (ip), vehicle: saline with Tween-80
[9] = dose: 200.0 mg/kg/injection, schedule: Q01DX005 (ip), vehicle: saline with Tween-80
[10] = dose: 60.0 mg/kg/injection, schedule: Q01DX005 (ip), vehicle: Klucel (hydroxypropylcellulose) (HPC)
[11] = dose: 120.0 mg/kg/injection, schedule: Q01DX005 (ip), vehicle: Klucel (hydroxypropylcellulose) (HPC)
[12] = dose: 240.0 mg/kg/injection, schedule: Q01DX005 (ip), vehicle: Klucel (hydroxypropylcellulose) (HPC)
[13] = dose: 100.0 mg/kg/injection, schedule: Q01DX009 (ip), vehicle: Klucel (hydroxypropylcellulose) (HPC)
[14] = dose: 100.0 mg/kg/injection, schedule: Q04DX003 (ip), vehicle: Klucel (hydroxypropylcellulose) (HPC)
[15] = dose: 200.0 mg/kg/injection, schedule: Q01DX009 (ip), vehicle: other

Compound: CCOC(=O)/C(C=NC1CC(N=C/C(C(=O)OCC)=C(\C)O)CC(N=C/C(C(=O)OCC)=C(\C)O)C1)=C(/C)O (stereo not given)
- T/C [1]: 106 % of control
- T/C [2]: 103 % of control
- T/C [3]: 97 % of control
- T/C [4]: 93 % of control

Compound: OC(c1cc2ccc(C(F)(F)F)cc2c2cc(C(F)(F)F)ccc12)C1CCCCN1 (stereo not given)
- T/C (dose: 12.5 mg/kg/injection, schedule: Q01DX009 (ip), vehicle: saline with Tween-80): 102 % of control and 107 % of control
- T/C (dose: 25.0 mg/kg/injection, schedule: Q01DX009 (ip), vehicle: saline with Tween-80): 100 % of control and 102 % of control

Compound: O=C(Nc1cccc(C(F)(F)F)c1)OC1CC2CC1C1CC3OC3C21 (stereo not given)
- T/C [5]: 93 % of control
- T/C [6]: 87 % of control

Compound: CC(C)(CCN)c1cc(CC(C)(C)C2(C)OCCO2)no1
- T/C [7]: 113 % of control
- T/C [8]: 108 % of control
- T/C [9]: 113 % of control

Compound: O=C1CCC(N(CC#CCN(C2=NC(=O)CC2)c2ccccc2)c2ccccc2)=N1
- T/C [10]: 103 % of control
- T/C [11]: 100 % of control
- T/C [12]: 97 % of control

Compound: COc1c(Cl)c2c(c(OC)c1OC)-c1ccc(OC)c(=O)cc1C(NC(C)=O)CC2 (stereo not given)
- T/C (dose: 0.78 mg/kg/injection, schedule: Q01DX009 (ip), vehicle: Klucel (hydroxypropylcellulose) (HPC)): 151 % of control
- T/C (dose: 1.56 mg/kg/injection, schedule: Q01DX009 (ip), vehicle: Klucel (hydroxypropylcellulose) (HPC)): 179 % of control and 188 % of control
- T/C (dose: 3.12 mg/kg/injection, schedule: Q01DX009 (ip), vehicle: Klucel (hydroxypropylcellulose) (HPC)): 199 % of control

Compound: COc1ccc(C23OCCN2C(=O)c2ccccc23)cc1 (stereo not given)
- T/C (dose: 60.0 mg/kg/injection, schedule: Q01DX005 (ip), vehicle: saline + Tween-80 + alcohol): 99 % of control
- T/C (dose: 120.0 mg/kg/injection, schedule: Q01DX005 (ip), vehicle: saline + Tween-80 + alcohol): 100 % of control
- T/C (dose: 240.0 mg/kg/injection, schedule: Q01DX005 (ip), vehicle: saline + Tween-80 + alcohol): 101 % of control

Compound: O=C1C=C(O)CC(c2ccccc2)N1 (stereo not given)
- T/C [5]: 102 % of control
- T/C [6]: 104 % of control
- T/C (dose: 200.0 mg/kg/injection, schedule: Q01DX005 (ip), vehicle: Klucel (hydroxypropylcellulose) (HPC)): 108 % of control

Compound: O=C(CNC(=O)C(Cc1c[nH]c2ccccc12)NC(=O)OCc1ccccc1)NCC(=O)OCc1ccccc1 (stereo not given)
- T/C [7]: 104 % of control
- T/C [8]: 100 % of control
- T/C [9]: 110 % of control

Compound: CC(=O)OCC1=CCCC1=O
- T/C [3]: 111 % of control

Compound: Cc1ccccc1NC(=O)Cc1ccccc1
- T/C [1]: 99 % of control
- T/C [2]: 104 % of control
- T/C [3]: 94 % of control
- T/C [4]: 108 % of control
- T/C [13]: 95 % of control

Compound: COC(=O)C1C2C=CC(C1C(=O)OC)N(/C=C/c1ccccc1)C2=O (stereo not given)
- T/C [14]: 96 % of control
- T/C (dose: 200.0 mg/kg/injection, schedule: Q04DX003 (ip), vehicle: Klucel (hydroxypropylcellulose) (HPC)): 95 % of control
- T/C (dose: 400.0 mg/kg/injection, schedule: Q04DX003 (ip), vehicle: Klucel (hydroxypropylcellulose) (HPC)): 97 % of control

Compound: CCc1nc(-c2ccccc2)nc2c1nc(-c1cccc(C)c1)n2Nc1ccccc1
- T/C [10]: 97 % of control
- T/C [11]: 94 % of control
- T/C [12]: 88 % of control

Compound: Cc1ccc(C2=C/C(=C/c3ccc(N(CCC#N)CCC#N)cc3)C(=O)O2)cc1C
- T/C (dose: 100.0 mg/kg/injection, schedule: Q01DX001 (ip), vehicle: saline with Tween-80): 94 % of control
- T/C (dose: 200.0 mg/kg/injection, schedule: Q01DX001 (ip), vehicle: saline with Tween-80): 90 % of control
- T/C (dose: 400.0 mg/kg/injection, schedule: Q01DX001 (ip), vehicle: saline with Tween-80): 97 % of control

Compound: COc1cc2c(c(OC)c1OC)-c1ccc(SC)c(=O)cc1[C@@H](NC1OC(COC(C)=O)C(OC(C)=O)C(OC(C)=O)C1OC(C)=O)CC2 (stereo not given in full)
- T/C (dose: 0.75 mg/kg/injection, schedule: Q01DX009 (ip), vehicle: other): 97 % of control
- T/C (dose: 1.5 mg/kg/injection, schedule: Q01DX009 (ip), vehicle: other): 97 % of control
- T/C (dose: 3.0 mg/kg/injection, schedule: Q01DX009 (ip), vehicle: other): 102 % of control
- T/C (dose: 6.0 mg/kg/injection, schedule: Q01DX009 (ip), vehicle: other): 107 % of control
- T/C (dose: 12.0 mg/kg/injection, schedule: Q01DX009 (ip), vehicle: other): 117 % of control
- T/C (dose: 24.0 mg/kg/injection, schedule: Q01DX009 (ip), vehicle: other): 120 % of control
- T/C (dose: 192.0 mg/kg/injection, schedule: Q01DX009 (ip), vehicle: other): 150 % of control

Compound: CCCCCCCCCCCCCC[N+]1(CC)CCCC1
- T/C (dose: 6.25 mg/kg/injection, schedule: Q04DX002 (ip), vehicle: saline): 119 % of control
- T/C (dose: 12.5 mg/kg/injection, schedule: Q04DX002 (ip), vehicle: saline): 86 % of control

Compound: Cc1ccc(N=C=C(c2ccccc2)c2ccccc2)cc1
- T/C [4]: 123 % of control
- T/C [13]: 119 % of control

Compound: COc1ccc2nc(CC(=N)c3ccc(N(C)C)cc3)ccc2c1
- T/C [7]: 89 % of control
- T/C [8]: 89 % of control
- T/C [9]: 92 % of control

Compound: O=C(COc1ccc(Cl)cc1)OC(=O)COc1ccc(Cl)cc1
- T/C (dose: 25.0 mg/kg/injection, schedule: Q01DX009 (ip), vehicle: other): 110 % of control
- T/C (dose: 50.0 mg/kg/injection, schedule: Q01DX009 (ip), vehicle: other): 112 % of control
- T/C (dose: 100.0 mg/kg/injection, schedule: Q01DX009 (ip), vehicle: other): 110 % of control
- T/C [15]: 106 % of control

Compound: COc1cc2c(c3c1C(=O)c1c(cc4c(c1O)C(OC)CC(C)(O)C4)C3=O)OC1OC2(C)C(O)C(N(C)C)C1O (stereo not given)
- T/C (dose: 1.25 mg/kg/injection, schedule: Q01DX009 (ip), vehicle: other): 117 % of control
- T/C (dose: 2.5 mg/kg/injection, schedule: Q01DX009 (ip), vehicle: other): 98 % of control
- T/C (dose: 5.0 mg/kg/injection, schedule: Q01DX009 (ip), vehicle: other): 102 % of control
- T/C (dose: 20.0 mg/kg/injection, schedule: Q01DX009 (ip), vehicle: other): 124 % of control
- T/C (dose: 40.0 mg/kg/injection, schedule: Q01DX009 (ip), vehicle: other): 123 % of control
- T/C [15]: 179 % of control

Compound: CCOP(=O)(O)C1CCCC(C)[N-]1.CCOP(=O)(O)C1CCCC(C)[N-]1.[Co+2] (stereo not given)
- T/C (dose: 25.0 mg/kg/injection, schedule: Q04DX003 (ip), vehicle: Klucel (hydroxypropylcellulose) (HPC)): 107 % of control
- T/C (dose: 50.0 mg/kg/injection, schedule: Q04DX003 (ip), vehicle: Klucel (hydroxypropylcellulose) (HPC)): 95 % of control
- T/C [14]: 99 % of control and 105 % of control

Compound: O=S(=O)(OCCCl)c1ccc(F)cc1
- T/C (dose: 50.0 mg/kg/injection, schedule: Q01DX009 (ip), vehicle: saline with Tween-80): 109 % of control
- T/C (dose: 100.0 mg/kg/injection, schedule: Q01DX009 (ip), vehicle: saline with Tween-80): 101 % of control
- T/C (dose: 200.0 mg/kg/injection, schedule: Q01DX009 (ip), vehicle: saline with Tween-80): 100 % of control

Compound: O=S(=O)(OI(O)c1ccccc1)c1ccc(Cl)cc1
- T/C (dose: 12.5 mg/kg/injection, schedule: Q01DX009 (ip), vehicle: water): 101 % of control
- T/C (dose: 25.0 mg/kg/injection, schedule: Q01DX009 (ip), vehicle: water): 105 % of control
- T/C (dose: 50.0 mg/kg/injection, schedule: Q01DX009 (ip), vehicle: water): 109 % of control and 114 % of control

Compound: CN(C)c1ccc(/C=N/NC(=O)c2ccccc2N)c(Cl)c1
- T/C (dose: 60.0 mg/kg/injection, schedule: Q01DX005 (ip), vehicle: saline with Tween-80): 96 % of control
- T/C (dose: 120.0 mg/kg/injection, schedule: Q01DX005 (ip), vehicle: saline with Tween-80): 89 % of control

Compound: OC1C(O)C(O)C(O)C(O)C1O (stereo not given)
- T/C (dose: 50.0 mg/kg/injection, schedule: Q01DX009 (ip), vehicle: saline): 97 % of control
- T/C (dose: 100.0 mg/kg/injection, schedule: Q01DX009 (ip), vehicle: saline): 96 % of control
- T/C (dose: 200.0 mg/kg/injection, schedule: Q01DX009 (ip), vehicle: saline): 100 % of control
- T/C (dose: 400.0 mg/kg/injection, schedule: Q01DX009 (ip), vehicle: saline): 96 % of control
